Laboratory results: US10702556B2, “Compositions and methods for inducing angiogenesis” (MINOVIA THERAPEUTICS LTD., priority 2012, dated 2020)

System: mouse aortic rings
Assay: Mouse aortic ring sprouting (ex-vivo angiogenesis)
Assay type: cell-based
Experimental: Thoracic aorta were removed from female C57/BL mice and cut into 0.5 mm rings. Aortic rings were incubated in serum-free medium and either left untreated or treated with 0.5 μM Rotenone for 4 hours. To assess mitochondria effect on sprouting of aortic rings, half of the non-treated rings were washed and incubated with 25 μg of C57/BL mouse placental mitochondria in 2 ml serum-free medium. After 24 hours the rings were embedded in rat tail collagen, one ring per well in a 96 wells plate. After 8 days in culture the level of sprouting was evaluated by counting the number of vessels per ring.
The effect of VEGF, mitochondria and mitochondria+VEGF on sprouting of aortic rings in-vitro was examined Mouse aortic rings were prepared as described in example 7 and were either left un-treated (NT), treated with 25 μg mouse placental mitochondria in 2 ml OptiMem medium for 24 h (Mito), incubated in OptiMem medium containing 2.5% FBS and 30 ng/ml mouse VEGF for 48 h (VEGF) or treated with both mitochondria and VEGF (VEGF+Mito). The number of new blood vessels sprouting from the aortic rings was counted on day 8.
Mouse aortic rings were prepared as described in example 7 and were either left un-treated or treated with increasing amounts (2-350 μg) of mouse placental mitochondria in 2 ml OptiMem medium for 24 h. The number of new blood vessels sprouting from the aortic rings was counted on day 7.
The effect of mitochondria on the number of blood vessels was evaluated in a mouse aortic ring model. Mouse aortic rings were prepared as described in example 7 and were either left un-treated (Control), treated for 24 h with 25 μg of mouse placental mitochondria (Mito), treated with mitochondria that were inhibited by 2 μM of mitochondria complex I inhibitor Rotenone or treated with mitochondria that were inhibited with 5 μM of the ATP Synthase inhibitor Oligomycin for 24 h. The number of new blood vessels sprouting from the aortic rings was counted on day 8.

| Compound | number of vessels per ring (sprouting) (0.5 μM Rotenone for 4 hours, 8 days in culture) | number of new blood vessels sprouting from the aortic rings, comparison between treated groups (25 μg mitochondria 24 h, 30 ng/ml mouse VEGF 48 h, or both, day 8) |
| --- | --- | --- |
| C=C(C)[C@H]1Cc2c(ccc3c2O[C@@H]2COc4cc(OC)c(OC)cc4[C@@H]2C3=O)O1 [Rotenone] | blocked the sprouting almost completely | – |
| VEGF | – | no significant difference |
